These are literature values, as cited in US20230073516A1, “INTRAORAL FAST-DISINTEGRATING FORMULATION CONTAINING HEMP OIL EXTRACT OR HEMP POWDER EXTRACT AS RAW MATERIAL OF FORMULATION” (CTC SCIENCE INC., priority 2019, published 2023).

The conditions of the series: absorbed while passing through the gastrointestinal tract.

Molecules are shown by their SMILES.

Regarding `C=C(C)[C@@H]1CCC(C)=C[C@H]1c1c(O)cc(CCCCC)cc1O` [cannabidiol], the Bioavailability of cannabidiol is on record as 13-19%.
